The text below walks through data of patent US9108944B2, “Androgen receptor modulators and uses thereof” (ARAGON PHARMACEUTICALS, INC., priority 2010, dated 2015).

For experiment [1], the target named is T1, AR-VP16 (Homo sapiens, UniProt P10275).
T1 sequence (P10275 560-920 limits assumed): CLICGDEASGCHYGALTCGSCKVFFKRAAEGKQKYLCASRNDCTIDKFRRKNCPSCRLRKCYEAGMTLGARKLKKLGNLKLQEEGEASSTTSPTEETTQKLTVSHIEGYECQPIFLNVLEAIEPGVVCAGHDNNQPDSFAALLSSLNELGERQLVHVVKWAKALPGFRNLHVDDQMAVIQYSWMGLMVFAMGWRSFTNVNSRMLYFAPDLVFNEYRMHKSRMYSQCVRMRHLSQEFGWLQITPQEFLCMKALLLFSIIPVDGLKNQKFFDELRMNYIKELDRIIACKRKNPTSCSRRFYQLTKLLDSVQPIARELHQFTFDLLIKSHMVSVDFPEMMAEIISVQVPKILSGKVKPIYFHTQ
Put plainly: AR-VP16 DNA Binding Assay, agonist mode (HepG2 cells). Format: cell-based. Conditions: Emax >20x DMSO control = agonist.

In experiment [2] the target is T1, AR-VP16. Description: AR-VP16 DNA Binding Assay, antagonist mode (HepG2 cells, 0.1 nM R1881). Format: cell-based. The gist of the method:
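Transfected HepG2 cells expressing AR-VP16 received serially diluted compound in charcoal-stripped-serum RPMI the day after transfection, with 0.1 nM R1881 (final) added only for antagonist testing. After 48 h, cells were lysed for measurement.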

The IC50 is the concentration that inhibits the measured activity by half. Read a high IC50 as weaker potency. For `Cn1ncc(Br)c1CCNC(=O)c1ccc(N2C(=S)N(c3cnc(C#N)c(C(F)(F)F)c3)C(=O)C23CCC3)cc1F` [Compound 256, N-(2-(4-Bromo-1-methyl-1H-pyrazol-5-yl)ethyl)-4-(7-(6-cyano-5-(trifluoromethyl)pyridin-3-yl)-8-oxo-6-thioxo-5,7-diazaspiro[3.4]octan-5-yl)-2-fluorobenzamide], the “ARVP16 DNA Binding Assay (Agonist mode): Agonist?” value (from here on “ARVP16 DNA Binding Assay”) on AR-VP16 [1] is on record as “No (Agonist defined as a compound whose Emax in the ARVP16 DNA Binding Assay (Agonist mode) is >20x DMSO control)”. In addition, the half-maximal inhibitory concentration (IC50) on AR-VP16 [2] is below 1000 nM.
For `N#Cc1ncc(N2C(=O)C3(CCC3)N(c3ccc(C(=O)NCCc4ccccc4)c(F)c3)C2=S)cc1C(F)(F)F` [Compound 257, 4-(7-(6-Cyano-5-(trifluoromethyl)pyridin-3-yl)-8-oxo-6-thioxo-5,7-diazaspiro[3.4]octan-5-yl)-2-fluoro-N-phenethylbenzamide] the same measures were “No (Agonist defined as a compound whose Emax in the ARVP16 DNA Binding Assay (Agonist mode) is >20x DMSO control)” and below 1000 nM.
On the same counts, the results for `N#Cc1ncc(N2C(=O)C3(CCC3)N(c3ccc(C(=O)NCc4ccncc4)c(F)c3)C2=S)cc1C(F)(F)F` [Compound 259, 4-(7-(6-Cyano-5-(trifluoromethyl)pyridin-3-yl)-8-oxo-6-thioxo-5,7-diazaspiro[3.4]octan-5-yl)-2-fluoro-N-(pyridin-4-ylmethyl)benzamide] are “No (Agonist defined as a compound whose Emax in the ARVP16 DNA Binding Assay (Agonist mode) is >20x DMSO control)” and below 1000 nM.
As for `N#Cc1ncc(N2C(=O)C3(CCC3)N(c3ccc(C(=O)Nc4ccccn4)c(F)c3)C2=S)cc1C(F)(F)F` [Compound 261, 4-(7-(6-Cyano-5-(trifluoromethyl)pyridin-3-yl)-8-oxo-6-thioxo-5,7-diazaspiro[3.4]octan-5-yl)-2-fluoro-N-(pyridin-2-yl)benzamide], at AR-VP16 [1], the “ARVP16 DNA Binding Assay” value is “No (Agonist defined as a compound whose Emax in the ARVP16 DNA Binding Assay (Agonist mode) is >20x DMSO control)”. The compound further yielded an IC50 at AR-VP16 [2] below 1000 nM.
On the same counts, the results for `N#Cc1ncc(N2C(=O)C3(CCC3)N(c3ccc(C(=O)Nc4cccnc4)c(F)c3)C2=S)cc1C(F)(F)F` [Compound 262, 4-(7-(6-Cyano-5-(trifluoromethyl)pyridin-3-yl)-8-oxo-6-thioxo-5,7-diazaspiro[3.4]octan-5-yl)-2-fluoro-N-(pyridin-3-yl)benzamide] are “No (Agonist defined as a compound whose Emax in the ARVP16 DNA Binding Assay (Agonist mode) is >20x DMSO control)” and below 1000 nM.
For `N#Cc1ncc(N2C(=O)C3(CCC3)N(c3ccc(C(=O)Nc4ccncc4)c(F)c3)C2=S)cc1C(F)(F)F` [Compound 263, 4-(7-(6-Cyano-5-(trifluoromethyl)pyridin-3-yl)-8-oxo-6-thioxo-5,7-diazaspiro[3.4]octan-5-yl)-2-fluoro-N-(pyridin-4-yl)benzamide] the same measures were “Yes (Agonist defined as a compound whose Emax in the ARVP16 DNA Binding Assay (Agonist mode) is >20x DMSO control)” and below 1000 nM.
Take `N#Cc1ncc(N2C(=O)C3(CCC3)N(c3ccc(C(=O)NCc4ccco4)c(F)c3)C2=S)cc1C(F)(F)F` [Compound 266, 4-(7-(6-Cyano-5-(trifluoromethyl)pyridin-3-yl)-8-oxo-6-thioxo-5,7-diazaspiro[3.4]octan-5-yl)-2-fluoro-N-(furan-2-ylmethyl)benzamide]: the “ARVP16 DNA Binding Assay” value on AR-VP16 [1] is “No (Agonist defined as a compound whose Emax in the ARVP16 DNA Binding Assay (Agonist mode) is >20x DMSO control)”. On AR-VP16 [2], this compound had an IC50 below 1000 nM.
